# How the values were obtained:
# [1] = target: T1, Gonadotropin-releasing hormone receptor (Rattus norvegicus, UniProt P30969); test: Affinity for rat gonadotrophin releasing hormone (GnRH) receptor using HEK293 cells transfected with rat Gonadotropin-releasing hormone receptor; type: cell-based; settings: hek293
# T1 sequence (P30969 whole entry): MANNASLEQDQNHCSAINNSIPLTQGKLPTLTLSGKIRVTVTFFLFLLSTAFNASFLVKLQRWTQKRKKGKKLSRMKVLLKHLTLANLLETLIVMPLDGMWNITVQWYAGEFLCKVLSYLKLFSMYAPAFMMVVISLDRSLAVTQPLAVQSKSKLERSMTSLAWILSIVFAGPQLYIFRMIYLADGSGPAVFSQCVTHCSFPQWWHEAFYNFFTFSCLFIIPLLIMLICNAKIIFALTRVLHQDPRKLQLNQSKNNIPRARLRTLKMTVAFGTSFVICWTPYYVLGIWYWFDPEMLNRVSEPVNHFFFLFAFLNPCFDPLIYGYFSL
# Rattus norvegicus [2] = organism: Rattus norvegicus; test: Antiovulatory potency at 50 ug/rat expressed as rats ovulating by total no. of rats (3/3); type: functional
# Rattus norvegicus [3] = organism: Rattus norvegicus; test: Antiovulatory potency at 5 ug/rat expressed as rats ovulating by total no. of rats (2/3); type: functional
# Rattus norvegicus [4] = organism: Rattus norvegicus; test: Antiovulatory potency at 1 ug/rat expressed as rats ovulating by total no. of rats (4/4); type: functional
# Rattus norvegicus [5] = organism: Rattus norvegicus; test: Antiovulatory potency at 2.5 ug/rat expressed as rats ovulating by total no. of rats (3/5); type: functional
# Rattus norvegicus [6] = organism: Rattus norvegicus; test: Antiovulatory potency at 5 ug/rat expressed as rats ovulating by total no. of rats (3/5); type: functional
# Rattus norvegicus [7] = organism: Rattus norvegicus; test: Antiovulatory potency at 25 ug/rat expressed as rats ovulating by total no. of rats (4/8); type: functional
# Rattus norvegicus [8] = organism: Rattus norvegicus; test: Antiovulatory potency at 10 ug/rat expressed as rats ovulating by total no. of rats (4/4); type: functional
# Rattus norvegicus [9] = organism: Rattus norvegicus; test: Antiovulatory potency at 100 ug/rat expressed as rats ovulating by total no. of rats (0/4); type: functional
# Rattus norvegicus [10] = organism: Rattus norvegicus; test: Antiovulatory potency at 250 ug/rat expressed as rats ovulating by total no. of rats (5/5); type: functional
# Rattus norvegicus [11] = organism: Rattus norvegicus; test: Antiovulatory potency at 5 ug/rat expressed as rats ovulating by total no. of rats (2/8); type: functional
# Rattus norvegicus [12] = organism: Rattus norvegicus; test: Antiovulatory potency at 25 ug/rat expressed as rats ovulating by total no. of rats (0/3); type: functional
# Rattus norvegicus [13] = organism: Rattus norvegicus; test: Antiovulatory potency at 10 ug/rat expressed as rats ovulating by total no. of rats (1/6); type: functional
# Rattus norvegicus [14] = organism: Rattus norvegicus; test: Antiovulatory potency at 5 ug/rat expressed as rats ovulating by total no. of rats (1/7); type: functional
# Rattus norvegicus [15] = organism: Rattus norvegicus; test: Antiovulatory potency at 2.5 ug/rat expressed as rats ovulating by total no. of rats (2/8); type: functional
# Rattus norvegicus [16] = organism: Rattus norvegicus; test: Antiovulatory potency at 10 ug/rat expressed as rats ovulating by total no. of rats (0/6); type: functional
# Rattus norvegicus [17] = organism: Rattus norvegicus; test: Antiovulatory potency at 10 ug/rat expressed as rats ovulating by total no. of rats (0/10); type: functional
# Rattus norvegicus [18] = organism: Rattus norvegicus; test: Antiovulatory potency at 5 ug/rat expressed as rats ovulating by total no. of rats (3/20); type: functional
# Rattus norvegicus [19] = organism: Rattus norvegicus; test: Antiovulatory potency at 250 ug/rat expressed as rats ovulating by total no. of rats (3/3); type: functional
compound,measurement,setting,value
CC(=O)N[C@@H]1CCC(=O)NCC(=O)NCC[C@H]2NC(=O)[C@@H](CC(=O)NC[C@H](C(N)=O)NC(=O)[C@H]3CCCN3C(=O)[C@H](CCCN=C(N)N)NC(=O)[C@@H](CC(C)C)NC(=O)[C@@H](CCCN=C(N)N)NC2=O)NC(=O)[C@@H](Cc2c[nH]c3ccccc23)NC(=O)[C@H](Cc2ccc(Cl)cc2)NC1=O,Ki,[1],17 nM
same,Ovulating rats,Rattus norvegicus [2],3
same,Ovulating rats,Rattus norvegicus [3],2
CC(=O)N[C@@H]1CC(=O)NCC(=O)NCC[C@H]2NC(=O)[C@@H](CC(=O)NC[C@H](C(N)=O)NC(=O)[C@H]3CCCN3C(=O)[C@H](CCCN=C(N)N)NC(=O)[C@@H](CC(C)C)NC(=O)[C@@H](Cc3ccc4ccccc4c3)NC2=O)NC(=O)[C@@H](Cc2cccnc2)NC(=O)[C@H](Cc2ccc(Cl)cc2)NC1=O,Ki,[1],0.12 nM
same,Ovulating rats,Rattus norvegicus [4],4
same,Ovulating rats,Rattus norvegicus [5],3
same,Ovulating rats,Rattus norvegicus [6],3
CC(=O)N[C@@H]1CCC(=O)NCCC[C@H]2NC(=O)[C@@H](CC(=O)NC[C@H](C(N)=O)NC(=O)[C@H]3CCCN3C(=O)[C@H](CCCN=C(N)N)NC(=O)[C@@H](CC(C)C)NC(=O)[C@@H](Cc3ccc4ccccc4c3)NC2=O)NC(=O)[C@@H](Cc2c[nH]c3ccccc23)NC(=O)[C@H](Cc2ccc(Cl)cc2)NC1=O,Ki,[1],0.86 nM
same,Ovulating rats,Rattus norvegicus [7],4
same,Ovulating rats,Rattus norvegicus [8],4
CC(=O)N[C@H](Cc1ccc2ccccc2c1)C(=O)N[C@H](Cc1ccc(Cl)cc1)C(=O)N[C@@H]1CC(=O)NCCCC[C@@H]2NC(=O)[C@H](CC(C)C)NC(=O)[C@@H](CCCN=C(N)N)NC(=O)[C@H](Cc3ccc(O)cc3)NC(=O)[C@H](CC(=O)NC[C@@H](C(N)=O)NC(=O)[C@@H]3CCCN3C2=O)NC1=O,Ovulating rats,Rattus norvegicus [9],0
same,Ovulating rats,Rattus norvegicus [10],5
CC(=O)N[C@H](Cc1ccc2ccccc2c1)C(=O)N[C@H](Cc1ccc(F)cc1)C(=O)N[C@H](Cc1cccnc1)C(=O)N[C@H]1CC(=O)NC[C@@H](C(N)=O)NC(=O)[C@@H]2CCCN2C(=O)[C@@H]2CCNC(=O)CNC(=O)CC[C@H](NC1=O)C(=O)N[C@H](CCCN=C(N)N)C(=O)N[C@@H](CC(C)C)C(=O)N2,Ovulating rats,Rattus norvegicus [11],2
same,Ovulating rats,Rattus norvegicus [12],0
same,Ovulating rats,Rattus norvegicus [13],1
CC(=O)N[C@@H]1CCC(=O)NCC(=O)NCC[C@H]2NC(=O)[C@@H](CC(=O)NC[C@H](C(N)=O)NC(=O)[C@H]3CCCN3C(=O)[C@H](CCCN=C(N)N)NC(=O)[C@@H](CC(C)C)NC(=O)[C@@H](Cc3ccc4ccccc4c3)NC2=O)NC(=O)[C@@H](Cc2c[nH]c3ccccc23)NC(=O)[C@H](Cc2ccc(Cl)cc2)NC1=O,Ovulating rats,Rattus norvegicus [14],1
same,Ovulating rats,Rattus norvegicus [15],2
same,Ovulating rats,Rattus norvegicus [16],0
CC(=O)N[C@H](Cc1ccc2ccccc2c1)C(=O)N[C@H](Cc1ccc(F)cc1)C(=O)N[C@H](Cc1c[nH]c2ccccc12)C(=O)N[C@H]1CC(=O)NC[C@@H](C(N)=O)NC(=O)[C@@H]2CCCN2C(=O)[C@@H]2CCCCNC(=O)CC[C@H](NC1=O)C(=O)N[C@H](CCCN=C(N)N)C(=O)N[C@@H](CC(C)C)C(=O)N2,Ovulating rats,Rattus norvegicus [17],0
same,Ovulating rats,Rattus norvegicus [18],3
CC(=O)N[C@@H]1CC(=O)NCC(=O)NCC[C@H]2NC(=O)[C@@H](CC(=O)NC[C@H](C(N)=O)NC(=O)[C@H]3CCCN3C(=O)[C@H](CCCN=C(N)N)NC(=O)[C@@H](CC(C)C)NC(=O)[C@@H](Cc3cccnc3)NC2=O)NC(=O)[C@@H](Cc2cccnc2)NC(=O)[C@H](Cc2ccc(Cl)cc2)NC1=O,Ki,[1],1.6 nM
same,Ovulating rats,Rattus norvegicus [19],3
